Assay results reported in patent US10766869B2, “Triazoles for the treatment of demyelinating dieases” (Vertex Pharmaceuticals Incorporated, priority 2015, dated 2020).

System: primary rat mixed cortical cells
Assay: In vitro myelination assay (MBP positive myelin strands, fold myelin pixels above background)
Format: cell-based
Settings: Rattus norvegicus, relative to baseline of no added compound; for fold induction at 1 µM: 1.0 μM compound, read-out: Fold myelin pixels above background, 1.0 μM; for fold induction at 10 µM: 10.0 μM compound, read-out: Fold myelin pixels above background, 10.0 μM
How it was run: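 Myelination read as total MBP-immunopositive strand pixels per well, imaged at 10× after fixation on day 14 and expressed relative to untreated wells, at 1.0 and 10.0 μM. Cells: dissociated postnatal day 1 rat cortex, cultured two weeks with compound, re-dosed at days 6 and 10.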

| Compound | fold induction at 1 µM | fold induction at 10 µM |
| --- | --- | --- |
| Fc1cc(-n2cnc(Nc3cc(C4CC4)cc(N4CCN(C5COC5)CC4)c3)n2)cc(F)n1 [Compound 121, N-[3-cyclopropyl-5-[4-(oxetan-3-yl)piperazin-1-yl]phenyl]-1-(2,6-difluoro-4-pyridyl)-1,2,4-triazol-3-amine] | 100 to 1000 | ≤ 1 |
| COCC1CCN(c2cc(C)cc(Nc3ncn(-c4ccnc(F)c4)n3)c2)CC1 [Compound 122, 1-(2-fluoro-4-pyridyl)-N-[3-[4-(methoxymethyl)-1-piperidyl]-5-methyl-phenyl]-1,2,4-triazol-3-amine] | 10 to 100 | 1000 to 10000 |
| CC(C)(O)[C@@H]1CN(c2cc(Nc3ncn(-c4cc(F)cc(F)c4)n3)cc(C(F)(F)F)c2)CCN1 [Compound 123, 2-[(2S)-4-[3-[[1-(3,5-difluorophenyl)-1,2,4-triazol-3-yl]amino]-5-(trifluoromethyl)phenyl]piperazin-2-yl]propan-2-ol] | 1 to 10 | ≤ 1 |
| CCc1cc(Nc2ncn(-c3cnccn3)n2)cc(N2CCNCC2)c1 [Compound 124, N-(3-ethyl-5-piperazin-1-yl-phenyl)-1-pyrazin-2-yl-1,2,4-triazol-3-amine] | 1000 to 10000 | ≤ 1 |
| Cc1cc(Nc2ncn(-c3cc(F)cc(F)c3)n2)cc(N2CCN(CC(=O)O)CC2)c1 [Compound 125, 2-[4-[3-[[1-(3,5-difluorophenyl)-1,2,4-triazol-3-yl]amino]-5-methyl-phenyl]piperazin-1-yl]acetic acid] | 10 to 100 | 1 to 10 |
| Cc1cc(Nc2ncn(-c3ccccc3)n2)cc(N2CCN(C3CCOC3C)CC2)c1 (stereo not shown) [Compound 127, N-[3-methyl-5-[4-(2-methyltetrahydrofuran-3-yl)piperazin-1-yl]phenyl]-1-phenyl-1,2,4-triazol-3-amine] | 1000 to 10000 | 1 to 10 |
| Cc1cc(Nc2ncn(-c3cc(F)cc(F)c3)n2)cc(N2CCN3CCC[C@@H]3C2)c1 [Compound 128, N-[3-[(8aR)-3,4,6,7,8,8a-hexahydro-1H-pyrrolo[1,2-a]pyrazin-2-yl]-5-methyl-phenyl]-1-(3,5-difluorophenyl)-1,2,4-triazol-3-amine] | 10 to 100 | 10 to 100 |
| Cc1cc(-n2cnc(Nc3cc(C4CC4)cc(N4CCN(C5COC5)CC4)c3)n2)nc(C)n1 [Compound 129, N-[3-cyclopropyl-5-[4-(oxetan-3-yl)piperazin-1-yl]phenyl]-1-(2,6-dimethylpyrimidin-4-yl)-1,2,4-triazol-3-amine] | ≤ 1 | ≤ 1 |
| Fc1cc(F)cc(-n2cnc(Nc3cc(N4CCN(C5COC5)CC4)cc(C(F)(F)F)c3)n2)c1 [Compound 130, 1-(3,5-difluorophenyl)-N-[3-[4-(oxetan-3-yl)piperazin-1-yl]-5-(trifluoromethyl)phenyl]-1,2,4-triazol-3-amine] | 1000 to 10000 | 100 to 1000 |
| Cc1cc(Nc2ncn(-c3cc(F)cc(F)c3)n2)cc(C2COC2)c1 [Compound 131, 1-(3,5-difluorophenyl)-N-[3-methyl-5-(oxetan-3-yl)phenyl]-1,2,4-triazol-3-amine] | 10 to 100 | 1000 to 10000 |
| CCc1cc(Nc2ncn(-c3ccnc(SC)n3)n2)cc(N2CCN(C3COC3)CC2)c1 [Compound 132, N-[3-ethyl-5-[4-(oxetan-3-yl)piperazin-1-yl]phenyl]-1-(2-methylsulfanylpyrimidin-4-yl)-1,2,4-triazol-3-amine] | 1 to 10 | 1 to 10 |
| Cc1cc(Nc2ncn(-c3ccccc3)n2)cc(N2CCN(C)C(C)C2)c1 (stereo not shown) [Compound 133, N-[3-(3,4-dimethylpiperazin-1-yl)-5-methyl-phenyl]-1-phenyl-1,2,4-triazol-3-amine] | 1000 to 10000 | ≤ 1 |
| Clc1cncc(-n2cnc(Nc3cc(C4CC4)cc(N4CCN(C5COC5)CC4)c3)n2)c1 [Compound 134, 1-(5-chloro-3-pyridyl)-N-[3-cyclopropyl-5-[4-(oxetan-3-yl)piperazin-1-yl]phenyl]-1,2,4-triazol-3-amine] | 100 to 1000 | 10 to 100 |
| Clc1cc(Nc2ncn(-c3ccccc3)n2)cc(N2CCOCC2)n1 [Compound 135, 2-chloro-6-morpholino-N-(1-phenyl-1,2,4-triazol-3-yl)pyridin-4-amine] | 1000 to 10000 | ≤ 1 |
| Cc1cc(Nc2ncn(-c3cnccn3)n2)cc(N2CCN(C3(C)COC3)CC2)c1 [Compound 136, N-[3-methyl-5-[4-(3-methyloxetan-3-yl)piperazin-1-yl]phenyl]-1-pyrazin-2-yl-1,2,4-triazol-3-amine] | 1 to 10 | 10 to 100 |
| Cc1cc(Nc2ncn(-c3cc(F)cc(F)c3)n2)cc(N2CCN(C3CCOC3)CC2)c1 (stereo not shown) [Compound 137, 1-(3,5-difluorophenyl)-N-[3-methyl-5-(4-tetrahydrofuran-3-ylpiperazin-1-yl)phenyl]-1,2,4-triazol-3-amine] | 1000 to 10000 | 100 to 1000 |
| Cc1cc(Nc2ncn(-c3ccccn3)n2)cc(N2CCN(C)CC2)c1 [Compound 138, N-[3-methyl-5-(4-methylpiperazin-1-yl)phenyl]-1-(2-pyridyl)-1,2,4-triazol-3-amine] | 10 to 100 | 100 to 1000 |
| Cc1cc(Nc2ncn(-c3cc(F)cc(F)c3)n2)cc(N2CC[N+]([O-])(C3COC3)CC2)c1 [Compound 139, 1-(3,5-difluorophenyl)-N-[3-methyl-5-[4-(oxetan-3-yl)-4-oxido-piperazin-4-ium-1-yl]phenyl]-1,2,4-triazol-3-amine] | 100 to 1000 | 1 to 10 |
| Cc1cc(Nc2ncn(-c3ccc(C#N)c(F)c3)n2)cc(N2CCN(C3COC3)CC2)c1 [Compound 140, 2-fluoro-4-[3-[3-methyl-5-[4-(oxetan-3-yl)piperazin-1-yl]anilino]-1,2,4-triazol-1-yl]benzonitrile] | 1 to 10 | 1 to 10 |
| Cc1cc(Nc2ncn(-c3cccc(Cl)c3)n2)cc(N2CCN(C)CC2)c1 [Compound 141, 1-(3-chlorophenyl)-N-[3-methyl-5-(4-methylpiperazin-1-yl)phenyl]-1,2,4-triazol-3-amine] | 100 to 1000 | ≤ 1 |
| Cc1cc(Nc2ncn(-c3ccccc3)n2)cc(N2CCC(C#N)CC2)c1 [Compound 142, 1-[3-methyl-5-[(1-phenyl-1,2,4-triazol-3-yl)amino]phenyl]piperidine-4-carbonitrile] | 1000 to 10000 | 100 to 1000 |
| COC(=O)N1CCCC(c2cc(C)cc(Nc3ncn(-c4ccccc4)n3)c2)C1 (stereo not shown) [Compound 143, methyl 3-[3-methyl-5-[(1-phenyl-1,2,4-triazol-3-yl)amino]phenyl]piperidine-1-carboxylate] | 1000 to 10000 | 1000 to 10000 |
| CC(=O)N1CCN(c2cc(Nc3ncn(-c4ccccc4)n3)cc(C(F)F)c2)CC1 [Compound 144, 1-[4-[3-(difluoromethyl)-5-[(1-phenyl-1,2,4-triazol-3-yl)amino]phenyl]piperazin-1-yl]ethanone] | 100 to 1000 | ≤ 1 |
